# Experiments:
# [1] = system: open-angle acute primary glaucoma; assay: Clinical Case Report 2; assay type: in vivo, patient; settings: ophthalmic treatment for IOP, after 4 months of treatment
# multiple sclerosis (MS) = settings: part intravenously, part per os; Hartstein and Ulett 1957; cited from earlier work
# [2] = system: rat model with Alzheimer disease; settings: Salkovic-Petrisic et al. 2014; cited from earlier work
smiles,measurement,setting,value
"CC(C)NCC(O)COc1ccc(CCOCC2CC2)cc1 (stereo not drawn) [beta-toxolol, betaxolol]",field of vision and acuity,[1],not improved
O=C[C@H](O)[C@@H](O)[C@@H](O)[C@H](O)CO [D-galactose],symptoms of the disease,multiple sclerosis (MS),improved the symptoms of the disease
same,effect of the oral treatment (learning capacity and memory),[2],beneficial effect
